# Test results published in patent publication US8871753B2, “Macrocyclic compounds and their use as kinase inhibitors” (Incyte Corporation, priority 2008, dated 2014).
# Where a name gives a salt, the structure may show the parent alone.
# Legend:
# Format in all cases: biochemical
# [1] = biological target: T1, Recombinant Human Anaplastic Lymphoma Kinase (Homo sapiens, UniProt Q9UM73); assay: ALK HTRF kinase assay; conditions: compound at a concentration of 500 nM or 1 mM (not specified); cells shown as percentage
# T1 construct: purchased Invitrogen, Carlsbad, Calif
# In short: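 Kinase activity of the recombinant human protein is measured on a biotinylated peptide, with a Eu-W1024 anti-phosphotyrosine antibody and streptavidin-allophycocyanin generating the homogeneous time-resolved fluorescence signal. Inhibition curves are fitted to yield IC50.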
# [2] = biological target: T2, human JAK3 (a.a. 781-1124) (Homo sapiens, UniProt P52333); assay: In vitro JAK kinase assay (HTRF, phosphorylation of a biotinylated peptide), JAK3; conditions: Table B1
# T2 construct: JAK3 (a.a. 781-1124); His tag (N); made in house; host or cells: insect cells (baculovirus)
# In short: (§1)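 Kinase activity was measured as phosphorylation of a biotinylated peptide, with ATP at 90 μM for JAK1, 30 μM for JAK2 and 3 μM for JAK3. Reactions ran 1 hr at room temperature, were stopped with EDTA plus SA-APC and Eu-Py20, and were read by HTRF after 40 minutes of antibody binding.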
# [3] = biological target: T3, human JAK1 (a.a. 837-1142) (Homo sapiens, UniProt P23458); assay: In vitro JAK kinase assay (HTRF, phosphorylation of a biotinylated peptide), JAK1; conditions: Table B1; read-out: JAK1 IC50
# T3 construct: human JAK1 (a.a. 837-1142); His tag (N); made in house; host or cells: insect cells (baculovirus)
# In short: as §1
# [4] = biological target: T4, human JAK2 (a.a. 828-1132) (Homo sapiens, UniProt O60674); assay: In vitro JAK kinase assay (HTRF, phosphorylation of a biotinylated peptide), JAK2; conditions: Table B1
# T4 construct: JAK2 (a.a. 828-1132); His tag (N); made in house; host or cells: insect cells (baculovirus)
# In short: as §1
# TYK2 = TYK2 (Homo sapiens, UniProt P29597); assay: TYK2 kinase inhibition (Table A1); conditions: Table B1
# Sequence of TYK2 (P29597 whole entry): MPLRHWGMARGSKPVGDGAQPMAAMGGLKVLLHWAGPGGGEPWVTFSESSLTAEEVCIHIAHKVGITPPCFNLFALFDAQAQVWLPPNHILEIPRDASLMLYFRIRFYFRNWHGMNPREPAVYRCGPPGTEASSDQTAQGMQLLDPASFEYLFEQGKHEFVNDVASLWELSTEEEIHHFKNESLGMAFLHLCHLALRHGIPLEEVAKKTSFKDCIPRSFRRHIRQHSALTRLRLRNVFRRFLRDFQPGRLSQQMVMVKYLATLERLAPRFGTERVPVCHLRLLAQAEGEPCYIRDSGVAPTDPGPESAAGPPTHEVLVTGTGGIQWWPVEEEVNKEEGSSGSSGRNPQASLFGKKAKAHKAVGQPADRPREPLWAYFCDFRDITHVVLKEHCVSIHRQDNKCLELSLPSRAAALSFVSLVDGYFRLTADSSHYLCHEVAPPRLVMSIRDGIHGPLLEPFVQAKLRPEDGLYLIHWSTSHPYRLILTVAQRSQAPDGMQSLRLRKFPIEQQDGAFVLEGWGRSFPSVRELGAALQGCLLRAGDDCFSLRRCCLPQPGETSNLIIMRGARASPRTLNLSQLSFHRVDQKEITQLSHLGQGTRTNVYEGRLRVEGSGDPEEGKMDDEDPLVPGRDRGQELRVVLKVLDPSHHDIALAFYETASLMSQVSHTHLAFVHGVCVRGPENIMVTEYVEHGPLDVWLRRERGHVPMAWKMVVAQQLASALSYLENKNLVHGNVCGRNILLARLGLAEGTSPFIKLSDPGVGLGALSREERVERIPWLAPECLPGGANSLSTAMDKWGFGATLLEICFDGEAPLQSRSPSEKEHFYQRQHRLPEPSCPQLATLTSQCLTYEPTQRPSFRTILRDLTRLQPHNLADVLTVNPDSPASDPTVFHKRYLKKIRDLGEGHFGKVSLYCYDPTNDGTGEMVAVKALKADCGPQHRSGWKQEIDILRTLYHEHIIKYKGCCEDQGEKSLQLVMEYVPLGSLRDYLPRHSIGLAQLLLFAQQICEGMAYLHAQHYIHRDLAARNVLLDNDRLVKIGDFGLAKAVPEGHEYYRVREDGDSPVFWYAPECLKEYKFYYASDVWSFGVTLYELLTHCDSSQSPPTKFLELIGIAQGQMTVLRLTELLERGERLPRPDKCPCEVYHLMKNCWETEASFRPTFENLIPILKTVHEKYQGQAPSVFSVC
# T2 sequence (P52333 781-1124): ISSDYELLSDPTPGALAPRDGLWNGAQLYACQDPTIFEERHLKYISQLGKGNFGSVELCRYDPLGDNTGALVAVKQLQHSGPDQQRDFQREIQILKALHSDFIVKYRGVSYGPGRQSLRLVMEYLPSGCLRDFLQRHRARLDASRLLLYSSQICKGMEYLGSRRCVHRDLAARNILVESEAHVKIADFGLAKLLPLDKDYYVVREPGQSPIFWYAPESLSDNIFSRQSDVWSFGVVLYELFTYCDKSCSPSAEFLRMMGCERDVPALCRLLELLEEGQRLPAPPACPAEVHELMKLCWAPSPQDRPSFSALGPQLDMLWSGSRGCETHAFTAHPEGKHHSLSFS
# T3 sequence (P23458 849-1154): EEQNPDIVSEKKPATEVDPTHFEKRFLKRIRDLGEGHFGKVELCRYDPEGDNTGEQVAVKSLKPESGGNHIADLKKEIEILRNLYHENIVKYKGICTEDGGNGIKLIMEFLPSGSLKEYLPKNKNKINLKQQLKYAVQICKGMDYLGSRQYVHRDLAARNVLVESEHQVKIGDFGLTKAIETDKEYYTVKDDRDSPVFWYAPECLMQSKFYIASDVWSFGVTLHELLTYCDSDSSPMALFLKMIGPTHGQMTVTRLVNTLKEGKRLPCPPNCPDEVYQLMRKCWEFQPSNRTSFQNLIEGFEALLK
# T4 sequence (O60674 828-1132): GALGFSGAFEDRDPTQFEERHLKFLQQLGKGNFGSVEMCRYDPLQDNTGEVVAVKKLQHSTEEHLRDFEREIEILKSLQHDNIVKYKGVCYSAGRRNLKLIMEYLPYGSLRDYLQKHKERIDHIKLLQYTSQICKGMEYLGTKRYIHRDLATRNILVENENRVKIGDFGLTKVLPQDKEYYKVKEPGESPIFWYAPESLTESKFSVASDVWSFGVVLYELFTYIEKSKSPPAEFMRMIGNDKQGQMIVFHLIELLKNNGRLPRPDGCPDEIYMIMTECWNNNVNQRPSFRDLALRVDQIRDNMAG
# T1 sequence (Q9UM73 19-1620): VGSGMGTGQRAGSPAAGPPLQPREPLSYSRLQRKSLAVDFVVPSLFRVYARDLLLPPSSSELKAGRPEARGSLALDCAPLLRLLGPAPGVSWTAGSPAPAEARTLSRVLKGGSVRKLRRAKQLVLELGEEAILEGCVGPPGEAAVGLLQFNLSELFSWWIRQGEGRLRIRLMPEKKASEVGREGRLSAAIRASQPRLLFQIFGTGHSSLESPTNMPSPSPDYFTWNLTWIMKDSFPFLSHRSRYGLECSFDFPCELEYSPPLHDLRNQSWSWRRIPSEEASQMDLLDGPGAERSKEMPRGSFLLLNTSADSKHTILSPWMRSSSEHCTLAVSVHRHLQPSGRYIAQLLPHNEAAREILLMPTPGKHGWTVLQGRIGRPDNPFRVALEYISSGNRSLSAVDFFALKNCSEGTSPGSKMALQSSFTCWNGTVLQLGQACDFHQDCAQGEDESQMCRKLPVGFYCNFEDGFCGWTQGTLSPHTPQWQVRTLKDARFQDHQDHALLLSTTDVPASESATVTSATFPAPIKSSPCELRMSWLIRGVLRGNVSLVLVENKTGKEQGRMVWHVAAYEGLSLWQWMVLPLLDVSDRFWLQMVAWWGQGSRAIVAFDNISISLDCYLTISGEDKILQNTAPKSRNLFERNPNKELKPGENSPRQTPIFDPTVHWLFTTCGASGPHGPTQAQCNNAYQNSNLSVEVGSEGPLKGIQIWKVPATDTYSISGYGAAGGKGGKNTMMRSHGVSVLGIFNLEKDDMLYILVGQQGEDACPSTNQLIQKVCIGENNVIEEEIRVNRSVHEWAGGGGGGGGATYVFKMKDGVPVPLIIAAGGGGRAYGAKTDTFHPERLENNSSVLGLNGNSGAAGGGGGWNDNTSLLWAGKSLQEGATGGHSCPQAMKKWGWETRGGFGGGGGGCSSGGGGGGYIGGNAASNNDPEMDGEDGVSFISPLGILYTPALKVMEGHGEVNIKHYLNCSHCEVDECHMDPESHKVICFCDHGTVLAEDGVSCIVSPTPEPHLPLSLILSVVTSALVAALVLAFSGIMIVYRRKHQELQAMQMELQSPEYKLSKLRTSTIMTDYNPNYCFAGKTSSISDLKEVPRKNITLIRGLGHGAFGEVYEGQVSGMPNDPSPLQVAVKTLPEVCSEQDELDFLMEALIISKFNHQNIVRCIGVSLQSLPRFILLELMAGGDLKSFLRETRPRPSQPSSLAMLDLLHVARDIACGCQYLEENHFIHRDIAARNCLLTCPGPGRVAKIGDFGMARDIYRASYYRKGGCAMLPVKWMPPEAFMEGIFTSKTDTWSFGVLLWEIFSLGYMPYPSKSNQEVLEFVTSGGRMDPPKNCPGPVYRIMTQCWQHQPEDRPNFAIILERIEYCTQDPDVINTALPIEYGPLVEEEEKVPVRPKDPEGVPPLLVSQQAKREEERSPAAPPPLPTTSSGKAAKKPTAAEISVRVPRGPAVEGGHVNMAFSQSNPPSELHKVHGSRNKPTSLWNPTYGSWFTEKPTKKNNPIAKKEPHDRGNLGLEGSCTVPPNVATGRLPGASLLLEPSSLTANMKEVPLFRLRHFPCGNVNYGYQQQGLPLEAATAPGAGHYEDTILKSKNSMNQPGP
SMILES,ALK % of inhibition at a concentration of 500 nM or 1 mM [1],IC50 [2],IC50 [3],IC50 [4],IC50 (TYK2)
"O=C(NCc1ccco1)Nc1ccc2cc1CCc1cccc(c1)Nc1ncc(Cl)c(n1)N2 [Example B117, N-[6-Chloro-2,4,8,22-tetraazatetracyclo[14.3.1.1(3,7).1(9,13)]docosa-1(20), 3(22),4,6,9(21),10,12,16,18-nonaen-12-yl]-N′-(2-furylmethyl)urea trifluoroacetate]",21%,17 nM,1.1 nM,2.8 nM,4.5 nM
"Cc1occc1NC(=O)Nc1ccc2cc1CCc1cccc(c1)Nc1ncc(Cl)c(n1)N2 [Example B118, N-[6-Chloro-2,4,8,22-tetraazatetracyclo[14.3.1.1(3,7).1(9,13)]docosa-1(20), 3(22),4,6,9(21),10,12,16,18-nonaen-12-yl]-N′-(2-methyl-3-furyl)urea trifluoroacetate]",22%,20 nM,1.3 nM,2.1 nM,7.7 nM
"O=C(Nc1ccc2cc1CCc1cccc(c1)Nc1ncc(Cl)c(n1)N2)NC1CCCCC1 [Example B119, N-[6-Chloro-2,4,8,22-tetraazatetracyclo[14.3.1.1(3,7).1(9,13)]docosa-1(20), 3(22),4,6,9(21),10,12,16,18-nonaen-12-yl]-N′-cyclohexylurea trifluoroacetate]",19%,48 nM,2.9 nM,3.3 nM,9.8 nM
"Cc1csc(NC(=O)Nc2ccc3cc2CCc2cccc(c2)Nc2ncc(Cl)c(n2)N3)c1 [Example B120, N-[6-Chloro-2,4,8,22-tetraazatetracyclo[14.3.1.1(3,7).1(9,13)]docosa-1(20), 3(22),4,6,9(21),10,12,16,18-nonaen-12-yl]-N′-(4-methyl-2-thienyl)urea trifluoroacetate]",16%,68 nM,6.7 nM,7.9 nM,25 nM
"O=C(Nc1ccc(Cl)nc1)Nc1ccc2cc1CCc1cccc(c1)Nc1ncc(Cl)c(n1)N2 [Example B121, N-(6-Chloropyridin-3-yl)-N′-[6-chloro-2,4,8,22-tetraazatetracyclo[14.3.1.1(3,7).1(9,13)]docosa-1(20),3(22),4,6,9(21),10,12,16,18-nonaen-12-yl]urea bis(trifluoroacetate)]",39%,50 nM,2.2 nM,7.9 nM,19 nM
"Cc1cccc(Cl)c1NC(=O)Nc1ccc2cc1CCc1cccc(c1)Nc1ncc(Cl)c(n1)N2 [Example B122, N-(2-Chloro-6-methylphenyl)-N′-[6-chloro-2,4,8,22-tetraazatetracyclo[14.3.1.1(3,7).1(9,13)]docosa-1(20),3(22),4,6,9(21),10,12,16,18-nonaen-12-yl]urea trifluoroacetate]",13%,30 nM,5.6 nM,6.7 nM,24 nM
"Cc1ccc(Cl)cc1NC(=O)Nc1ccc2cc1CCc1cccc(c1)Nc1ncc(Cl)c(n1)N2 [Example B123, N-(5-Chloro-2-methylphenyl)-N′-[6-chloro-2,4,8,22-tetraazatetracyclo[14.3.1.1(3,7).1(9,13)]docosa-1(20),3(22),4,6,9(21),10,12,16,18-nonaen-12-yl]urea trifluoroacetate]",16%,110 nM,7.9 nM,15 nM,32 nM
"O=C(Nc1ccc2cc1CCc1cccc(c1)Nc1ncc(Cl)c(n1)N2)Nc1cccc2ccccc12 [Example B124, N-[6-Chloro-2,4,8,22-tetraazatetracyclo[14.3.1.1(3,7).1(9,13)]docosa-1(20),3(22),4,6,9(21),10,12,16,18-nonaen-12-yl]-N′-1-naphthylurea trifluoroacetate]",17%,33 nM,3.9 nM,4.6 nM,13 nM
"Cn1ccc2c(NC(=O)Nc3ccc4cc3CCc3cccc(c3)Nc3ncc(Cl)c(n3)N4)cccc21 [Example B125, N-[6-Chloro-2,4,8,22-tetraazatetracyclo[14.3.1.1(3,7).1(9,13)]docosa-1(20), 3(22),4,6,9(21),10,12,16,18-nonaen-12-yl]-N′-(1-methyl-1H-indol-4-yl)urea trifluoroacetate]",34%,76 nM,2.8 nM,10 nM,30 nM
"CCC(C)c1ccccc1NC(=O)Nc1ccc2cc1CCc1cccc(c1)Nc1ncc(Cl)c(n1)N2 (stereo not drawn) [Example B126, N-(2-sec-Butylphenyl)-N′-[6-chloro-2,4,8,22-tetraazatetracyclo[14.3.1.1(3,7).1(9,13)]docosa-1(20),3(22),4,6,9(21),10,12,16,18-nonaen-12-yl]urea trifluoroacetate]",6.1%,164 nM,8.9 nM,20 nM,52 nM
"O=C(Nc1ccc2cc1CCc1cccc(c1)Nc1ncc(Cl)c(n1)N2)NC12CC3CC(CC(C3)C1)C2 [Example B127, N-1-Adamantyl-N′-[6-chloro-2,4,8,22-tetraazatetracyclo[14.3.1.1(3,7).1(9,13)]docosa-1(20),3(22),4,6,9(21),10,12,16,18-nonaen-12-yl]urea trifluoroacetate]",6.1%,182 nM,25 nM,27 nM,89 nM
"O=C(Nc1ccc2cc1CCc1cccc(c1)Nc1ncc(Cl)c(n1)N2)Nc1ccccc1OC(F)F [Example B128, N-[6-Chloro-2,4,8,22-tetraazatetracyclo[14.3.1.1(3,7).1(9,13)]docosa-1(20), 3(22),4,6,9(21),10,12,16,18-nonaen-12-yl]-N′-[2-(difluoromethoxy)phenyl]urea trifluoroacetate]",32%,13 nM,0.69 nM,1.8 nM,9.2 nM
"CC1(C)Cc2cccc(NC(=O)Nc3ccc4cc3CCc3cccc(c3)Nc3ncc(Cl)c(n3)N4)c2O1 [Example B129, N-[6-Chloro-2,4,8,22-tetraazatetracyclo[14.3.1.1(3,7).1(9,13)]docosa-1(20),3(22),4,6,9(21),10,12,16,18-nonaen-12-yl]-N′-(2,2-dimethyl-2,3-dihydro-1-benzofuran-7-yl)urea trifluoroacetate]",7.3%,184 nM,3.7 nM,9.5 nM,32 nM
"O=C(Nc1ccc2cc1CCc1cccc(c1)Nc1ncc(Cl)c(n1)N2)Nc1ccccc1-c1ccccc1 [Example B130, N-Biphenyl-2-yl-N′-[6-chloro-2,4,8,22-tetraazatetracyclo[14.3.1.1(3,7).1(9,13)]docosa-1(20),3(22),4,6,9(21),10,12,16,18-nonaen-12-yl]urea trifluoroacetate]",0%,331 nM,11 nM,11 nM,64 nM
"O=C(Nc1ccc2cc1CCc1cccc(c1)Nc1ncc(Cl)c(n1)N2)Nc1ccccc1OC(F)(F)F [Example B131, N-[6-Chloro-2,4,8,22-tetraazatetracyclo[14.3.1.1(3,7).1(9,13)]docosa-1(20), 3(22),4,6,9(21),10,12,16,18-nonaen-12-yl]-N′-[2-(trifluoromethoxy)phenyl]urea trifluoroacetate]",5.9%,63 nM,7.3 nM,13 nM,33 nM
"O=C(Nc1ccc(OC(F)(F)F)cc1)Nc1ccc2cc1CCc1cccc(c1)Nc1ncc(Cl)c(n1)N2 [Example B132, N-[6-Chloro-2,4,8,22-tetraazatetracyclo[14.3.1.1(3,7).1(9,13)]docosa-1(20), 3(22),4,6,9(21),10,12,16,18-nonaen-12-yl]-N′-[4-(trifluoromethoxy)phenyl]urea trifluoroacetate]",5%,198 nM,11 nM,27 nM,96 nM
"O=C(Nc1cccc(N2CCOCC2)n1)Nc1ccc2cc1CCc1cccc(c1)Nc1ncc(Cl)c(n1)N2 [Example B133, N-[6-Chloro-2,4,8,22-tetraazatetracyclo[14.3.1.1(3,7).1(9,13)]docosa-1(20), 3(22),4,6,9(21),10,12,16,18-nonaen-12-yl]-N′-(6-morpholin-4-ylpyridin-2-yl)urea bis(trifluoroacetate)]",2.5%,376 nM,44 nM,85 nM,288 nM
"CNC(=O)Nc1ccc2cc1CCc1cncc(c1)Nc1ncc(Cl)c(n1)N2 [Example B135, N-[6-Chloro-2,4,8,18,22-pentaazatetracyclo[14.3.1.1(3,7).1(9,13)]docosa-1(20),3(22),4,6,9(21),10,12,16,18-nonaen-12-yl]-N′-methylurea bis(trifluoroacetate)]",13%,30 nM,0.69 nM,4.3 nM,6.8 nM
